In ChEMBL document CHEMBL5226328, “Rational Multitargeted Drug Design Strategy from the Perspective of a Medicinal Chemist” (J Med Chem, 2021):

Tests used:
[1] = target: T1, Vitamin D3 receptor (Homo sapiens, UniProt P11473)
T1 sequence (P11473 whole entry): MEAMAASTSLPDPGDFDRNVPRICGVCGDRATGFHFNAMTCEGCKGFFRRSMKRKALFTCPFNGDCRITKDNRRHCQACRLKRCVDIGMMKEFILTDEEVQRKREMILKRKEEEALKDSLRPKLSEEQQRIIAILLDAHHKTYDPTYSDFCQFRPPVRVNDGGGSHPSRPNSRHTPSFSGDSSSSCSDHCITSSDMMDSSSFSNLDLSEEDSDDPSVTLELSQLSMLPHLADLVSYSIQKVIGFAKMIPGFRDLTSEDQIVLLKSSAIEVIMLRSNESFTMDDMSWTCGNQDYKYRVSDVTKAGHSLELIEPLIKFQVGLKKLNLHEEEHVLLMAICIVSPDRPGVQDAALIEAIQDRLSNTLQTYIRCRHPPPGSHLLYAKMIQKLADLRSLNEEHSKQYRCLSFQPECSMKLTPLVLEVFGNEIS
Description: Inhibition of VDR (unknown origin)

[2] = target: Amyloid-beta precursor protein (Homo sapiens, UniProt P05067)
Sequence of Amyloid-beta precursor protein (P05067 whole entry): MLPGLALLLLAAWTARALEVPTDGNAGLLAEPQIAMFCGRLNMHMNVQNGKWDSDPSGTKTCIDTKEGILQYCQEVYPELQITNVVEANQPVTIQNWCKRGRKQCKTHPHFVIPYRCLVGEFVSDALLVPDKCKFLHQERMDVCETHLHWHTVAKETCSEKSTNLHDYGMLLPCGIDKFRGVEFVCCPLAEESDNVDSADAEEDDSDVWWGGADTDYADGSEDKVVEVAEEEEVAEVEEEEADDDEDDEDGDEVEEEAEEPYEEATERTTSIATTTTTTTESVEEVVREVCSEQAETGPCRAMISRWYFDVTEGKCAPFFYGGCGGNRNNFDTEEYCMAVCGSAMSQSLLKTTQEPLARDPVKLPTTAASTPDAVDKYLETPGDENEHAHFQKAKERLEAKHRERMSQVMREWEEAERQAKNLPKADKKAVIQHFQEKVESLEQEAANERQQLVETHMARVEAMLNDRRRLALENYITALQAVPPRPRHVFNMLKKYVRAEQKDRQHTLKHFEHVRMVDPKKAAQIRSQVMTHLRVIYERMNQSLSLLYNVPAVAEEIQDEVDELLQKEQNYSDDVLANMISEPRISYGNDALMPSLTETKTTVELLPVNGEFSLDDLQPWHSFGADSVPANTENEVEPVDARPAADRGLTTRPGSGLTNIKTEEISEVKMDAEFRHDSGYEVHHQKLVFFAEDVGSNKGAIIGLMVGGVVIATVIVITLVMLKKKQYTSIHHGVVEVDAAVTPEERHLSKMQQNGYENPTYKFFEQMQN
Description: Inhibition of amyloid beta (1 to 42 ) (unknown origin) self aggregation

[3] = target: Acetylcholinesterase (Homo sapiens, UniProt P22303)
Sequence of Acetylcholinesterase (P22303 whole entry): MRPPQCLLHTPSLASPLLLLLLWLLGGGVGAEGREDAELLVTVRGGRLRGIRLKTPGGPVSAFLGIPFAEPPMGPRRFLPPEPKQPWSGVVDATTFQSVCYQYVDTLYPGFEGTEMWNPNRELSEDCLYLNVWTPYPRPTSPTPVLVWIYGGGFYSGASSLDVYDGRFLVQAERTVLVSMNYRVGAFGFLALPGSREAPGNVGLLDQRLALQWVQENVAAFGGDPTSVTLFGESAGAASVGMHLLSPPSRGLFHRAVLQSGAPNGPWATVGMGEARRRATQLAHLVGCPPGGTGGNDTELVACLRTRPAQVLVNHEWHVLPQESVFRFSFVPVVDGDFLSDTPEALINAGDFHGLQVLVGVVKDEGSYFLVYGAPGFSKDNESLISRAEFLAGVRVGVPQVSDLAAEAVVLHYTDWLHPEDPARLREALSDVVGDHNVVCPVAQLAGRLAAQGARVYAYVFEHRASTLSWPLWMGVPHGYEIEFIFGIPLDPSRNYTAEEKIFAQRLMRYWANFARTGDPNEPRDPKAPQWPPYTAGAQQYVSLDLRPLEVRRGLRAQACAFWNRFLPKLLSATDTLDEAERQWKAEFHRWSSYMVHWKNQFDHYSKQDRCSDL
Description: Inhibition of AChE (unknown origin)

[4] = target: Sodium-dependent serotonin transporter (Homo sapiens, UniProt P31645)
Sequence of Sodium-dependent serotonin transporter (P31645 whole entry): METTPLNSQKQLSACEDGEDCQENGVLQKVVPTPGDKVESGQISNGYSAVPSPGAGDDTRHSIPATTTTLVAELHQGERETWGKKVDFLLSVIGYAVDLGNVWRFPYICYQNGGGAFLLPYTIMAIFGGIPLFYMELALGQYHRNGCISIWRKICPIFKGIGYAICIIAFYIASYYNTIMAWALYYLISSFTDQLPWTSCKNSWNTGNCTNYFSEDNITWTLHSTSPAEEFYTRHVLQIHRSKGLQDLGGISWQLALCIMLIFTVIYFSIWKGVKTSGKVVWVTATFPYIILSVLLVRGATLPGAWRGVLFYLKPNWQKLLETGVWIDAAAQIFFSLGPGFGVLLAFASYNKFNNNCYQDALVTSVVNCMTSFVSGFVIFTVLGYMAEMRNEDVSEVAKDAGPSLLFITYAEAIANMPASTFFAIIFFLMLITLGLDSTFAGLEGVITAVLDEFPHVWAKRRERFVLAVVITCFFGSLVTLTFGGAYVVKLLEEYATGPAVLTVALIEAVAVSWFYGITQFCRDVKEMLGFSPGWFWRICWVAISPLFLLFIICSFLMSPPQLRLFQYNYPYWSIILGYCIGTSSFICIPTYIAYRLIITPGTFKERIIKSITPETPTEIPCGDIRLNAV
Description: Inhibition of SERT (unknown origin)

[5] = target: T2, Thromboxane-A synthase (Homo sapiens, UniProt P24557)
T2 sequence (P24557 whole entry): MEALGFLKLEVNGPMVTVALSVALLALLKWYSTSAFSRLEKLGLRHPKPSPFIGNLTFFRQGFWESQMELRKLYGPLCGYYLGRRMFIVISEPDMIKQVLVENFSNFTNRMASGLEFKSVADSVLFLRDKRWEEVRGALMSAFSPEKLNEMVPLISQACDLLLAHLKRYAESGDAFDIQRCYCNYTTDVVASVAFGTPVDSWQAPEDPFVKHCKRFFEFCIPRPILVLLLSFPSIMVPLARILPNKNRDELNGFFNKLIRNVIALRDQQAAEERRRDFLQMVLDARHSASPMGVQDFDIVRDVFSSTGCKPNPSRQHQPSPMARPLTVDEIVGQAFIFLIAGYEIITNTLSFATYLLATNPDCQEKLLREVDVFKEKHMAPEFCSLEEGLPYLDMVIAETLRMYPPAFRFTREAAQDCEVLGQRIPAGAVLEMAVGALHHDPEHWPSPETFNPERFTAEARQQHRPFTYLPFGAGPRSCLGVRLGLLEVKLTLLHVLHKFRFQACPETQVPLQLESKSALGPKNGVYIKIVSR
Description: Inhibition of TXA2 synthetase (unknown origin)

[6] = target: Voltage-dependent calcium channel subunit alpha-2/delta-1 (Homo sapiens, UniProt P54289)
Sequence of Voltage-dependent calcium channel subunit alpha-2/delta-1 (P54289 25-956 limits assumed): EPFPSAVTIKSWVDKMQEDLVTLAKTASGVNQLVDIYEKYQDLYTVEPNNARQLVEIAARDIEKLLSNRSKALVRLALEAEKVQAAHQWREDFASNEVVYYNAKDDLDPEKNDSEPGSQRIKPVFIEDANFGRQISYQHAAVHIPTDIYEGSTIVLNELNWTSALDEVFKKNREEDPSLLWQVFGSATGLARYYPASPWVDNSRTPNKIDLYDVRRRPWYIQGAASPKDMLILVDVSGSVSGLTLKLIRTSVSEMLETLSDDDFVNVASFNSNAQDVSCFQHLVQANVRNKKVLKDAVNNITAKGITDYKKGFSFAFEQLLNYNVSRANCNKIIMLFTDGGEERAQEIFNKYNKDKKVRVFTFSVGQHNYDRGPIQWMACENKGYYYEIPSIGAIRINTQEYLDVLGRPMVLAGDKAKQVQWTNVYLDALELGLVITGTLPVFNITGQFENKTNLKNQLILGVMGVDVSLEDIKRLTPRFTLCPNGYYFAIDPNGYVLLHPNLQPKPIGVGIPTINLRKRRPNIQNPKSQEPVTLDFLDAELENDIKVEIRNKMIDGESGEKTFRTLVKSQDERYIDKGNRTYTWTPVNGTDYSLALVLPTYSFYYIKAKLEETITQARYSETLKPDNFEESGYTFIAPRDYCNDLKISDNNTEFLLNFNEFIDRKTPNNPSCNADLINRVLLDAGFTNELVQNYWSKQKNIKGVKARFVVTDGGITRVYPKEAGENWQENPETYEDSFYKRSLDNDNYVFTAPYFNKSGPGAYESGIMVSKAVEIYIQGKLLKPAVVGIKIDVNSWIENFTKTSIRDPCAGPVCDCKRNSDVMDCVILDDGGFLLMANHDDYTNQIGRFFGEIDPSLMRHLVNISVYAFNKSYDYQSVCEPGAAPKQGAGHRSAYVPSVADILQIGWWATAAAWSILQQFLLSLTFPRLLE
Sequence of Voltage-dependent calcium channel subunit alpha-2/delta-1 (P54289 957-1103 limits assumed): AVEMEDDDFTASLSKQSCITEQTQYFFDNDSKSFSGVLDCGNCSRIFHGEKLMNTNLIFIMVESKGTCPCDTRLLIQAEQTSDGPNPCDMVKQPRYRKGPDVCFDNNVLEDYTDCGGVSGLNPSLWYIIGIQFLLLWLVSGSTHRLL
Description: Binding affinity to calcium channel alpha2delta1 (unknown origin)

Structure (SMILES): CC(/C=C/C(=O)NO)=C\C(C)C1CCC2/C(=C/C=C3CC(O)CC(O)C3)CCCC21C (stereo not given)
- IC50 [1]: 87 nM

Structure (SMILES): CCN(CC)CCCOc1ccc(-c2oc3ccccc3c2C(=O)c2ccc(C)cc2)cc1
- IC50 [2]: 56000 nM

Structure (SMILES): CCN(C)C(=O)Oc1ccc(C(CCOc2ccc([N+](=O)[O-])cc2)NC)cc1 (stereo not given)
- IC50 [3]: 101 nM
- IC50 [4]: 42 nM

Structure (SMILES): O=C(O)CCCCO/N=C(/c1cccnc1)c1cccc(C(F)(F)F)c1 [RIDOGREL]
- IC50 [5]: 500 nM

Structure (SMILES): CCN(C)C(=O)Oc1ccc2c(c1)C=CC(C)N(C)C2CCOc1ccc([N+](=O)[O-])cc1 (stereo not given)
- IC50 [3]: 14 nM
- IC50 [4]: 6 nM

Structure (SMILES): Cc1c(O)c(=O)ccn1-c1ccc(OCCCN2CCCC2)cc1
- IC50 [2]: 2850 nM

Structure (SMILES): CCNc1ncc2c(n1)N1CCCC1CN(c1cccc(-c3noc(C)n3)c1)C2=O (stereo not given)
- Ki [6]: 11 nM

Structure (SMILES): CCOC(=O)CCCCO/N=C(/c1cccnc1)c1cccc(CNS(=O)(=O)c2ccc(Cn3c(C)nc4ccccc43)cc2)c1
- IC50 [5]: 4.7 nM
